The values that follow come from US20230017045A1, “PYRIDINE AND PYRIMIDINE CARBOXYLATE HERBICIDES AND METHODS OF USE THEREOF” (Dow AgroSciences LLC, priority 2017, published 2023).

Where two headings read alike, the source gives them in different places.

The assay deals with test plant species. Description: Post-emergent herbicidal activity test (greenhouse, foliar spray, visual growth reduction). Type of assay: in vivo. The note with it: post-emergence, 336 h, 140 g ai/ha. The procedure, abridged: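 Seedlings were raised 7-21 d in a greenhouse under a 15 h photoperiod until the first or second true leaf. Each compound, dissolved in acetone:DMSO 97:3 and diluted into a surfactant-containing spray mixture, was then applied at 187 L/ha. Plants were subirrigated, and growth reduction was scored visually at 14 d.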

The mark [1] stands for this setting: ECHCG: barnyardgrass (Echinochloa crus-galli), 14 days after application, read-out: Visual Growth Reduction (%) 14 Days After Application, ECHCG.
The mark [2] stands for this setting: IPOHE: ivy-leaf morning glory (Ipomoea hederacea), 14 days after application, read-out: Visual Growth Reduction (%) 14 Days After Application, IPOHE.
Where [3] appears, read: KCHSC: kochia (Bassia scoparia), 14 days after application, read-out: Visual Growth Reduction (%) 14 Days After Application, KCHSC.
The mark [4] stands for this setting: ORYSA: rice (Oryza sativa), 14 days after application, read-out: Visual Growth Reduction (%) 14 Days After Application, ORYSA.
The mark [5] stands for this setting: SETFA: giant foxtail (Setaria faberi), 14 days after application, read-out: Visual Growth Reduction (%) 14 Days After Application, SETFA.
The mark [6] stands for this setting: SORVU: grain sorghum (Sorghum vulgare), 14 days after application, read-out: Visual Growth Reduction (%) 14 Days After Application, SORVU.
[7] abbreviates: STEME: common chickweed (Stellaria media), 14 days after application, read-out: Visual Growth Reduction (%) 14 Days After Application, STEME.
Where [8] appears, read: TRZAS: wheat, spring (Triticum aestivum), 14 days after application, read-out: Visual Growth Reduction (%) 14 Days After Application, TRZAS.
Where [9] appears, read: blackgrass (Alopecurus myosuroides), 14 Days After Application, read-out: Visual Growth Reduction (%) ALOMY.
Setting [10] is: canada thistle (Cirsium arvense), 14 Days After Application, read-out: Visual Growth Reduction (%) CIRAR.
Where [11] appears, read: crabgrass (Digitaria sanguinalis), 14 Days After Application, read-out: Visual Growth Reduction (%) DIGSA.
Setting [12] is: lambsquarters (Chenopodium album), 14 Days After Application, read-out: Visual Growth Reduction (%) CHEAL.
[13] abbreviates: redroot pigweed (Amaranthus retroflexus), 14 Days After Application, read-out: Visual Growth Reduction (%) AMARE.
Where [14] appears, read: wild oat (Avena fatua), 14 Days After Application, read-out: Visual Growth Reduction (%) AVEFA.
Where [15] appears, read: yellow nutsedge (Cyperus esculentus), 14 Days After Application, read-out: Visual Growth Reduction (%) CYPES.

Take `COc1cc(C(F)(F)F)cc(Cl)c1-c1ccc(Cl)c(C(=O)O)n1` [F223, 3-Chloro-6-(2-chloro-6-methoxy-4-(trifluoromethyl)phenyl) picolinic acid]: the pest or weed control at 140 g/ha runs as follows: under setting [1], 75 to 84%; under setting [2], 95 to 100%; under setting [3], 95 to 100%; under setting [4], 30 to 44%; under setting [5], 85 to 94%; under setting [6], 85 to 94%. The pest or weed control at 140 g/ha reads like this: under setting [7], 60 to 74%; under setting [8], 75 to 84%; under setting [9], 0 to 29%; under setting [10], 95 to 100%; under setting [11], 60 to 74%; under setting [12], 95 to 100%. The pest or weed control at 140 g/ha was 95 to 100% under setting [13], 60 to 74% under setting [14] and 45 to 59% under setting [15].
Take `O=C(O)c1nc(-c2c(Cl)cc(C(F)(F)F)cc2[N+](=O)[O-])ccc1Cl` [F224, 3-Chloro-6-(2-chloro-6-nitro-4-(trifluoromethyl)phenyl)picolinic acid]: the pest or weed control at 140 g/ha lay within 0 to 29% under setting [1]; 95 to 100% under setting [2]; 45 to 59% under setting [3]; 45 to 59% under setting [4]; 45 to 59% under setting [5]; 60 to 74% under setting [6]. The pest or weed control at 140 g/ha under setting [7] lay within 0 to 29%; the pest or weed control at 140 g/ha under setting [8] was in the range of 0 to 29%; the pest or weed control at 140 g/ha under setting [9] lay in the range of 0 to 29%; the pest or weed control at 140 g/ha under setting [10] was in the range of 45 to 59%; the pest or weed control at 140 g/ha under setting [11] is 75 to 84%; the pest or weed control at 140 g/ha under setting [12] was 95 to 100%. In addition, the pest or weed control at 140 g/ha by setting is: under setting [13], 85 to 94%; under setting [14], 0 to 29%; under setting [15], 0 to 29%.
As to `O=C(O)c1nc(-c2nc(Cl)c(C(F)(F)F)cc2Cl)ccc1Cl` [F225, 3′,5,6′-Trichloro-5'-(trifluoromethyl)-[2,2′-bipyridine]-6-carboxylic acid], the pest or weed control at 140 g/ha runs as follows: under setting [1], 95 to 100%; under setting [2], 95 to 100%; under setting [3], 95 to 100%; under setting [4], 85 to 94%; under setting [5], 95 to 100%; under setting [6], 95 to 100%. For the same molecule, the pest or weed control at 140 g/ha under setting [7] lay within 45 to 59%; the pest or weed control at 140 g/ha under setting [8] was 75 to 84%; the pest or weed control at 140 g/ha under setting [9] lay in the range of 45 to 59%; the pest or weed control at 140 g/ha under setting [10] was 85 to 94%; the pest or weed control at 140 g/ha under setting [11] lay within 95 to 100%; the pest or weed control at 140 g/ha under setting [12] is 95 to 100%. In addition, the pest or weed control at 140 g/ha by setting is: under setting [13], 95 to 100%; under setting [14], 95 to 100%; under setting [15], 45 to 59%.
Consider `O=C(O)c1nc(-c2ccc(OC(F)(F)F)cc2Cl)ccc1Cl` [F226, 3-Chloro-6-(2-chloro-4-4-(trifluoromethoxy)phenyl)picolinic acid], for which the pest or weed control at 140 g/ha reads like this: under setting [1], 60 to 74%; under setting [2], 95 to 100%; under setting [3], 60 to 74%; under setting [4], 0 to 29%; under setting [5], 85 to 94%; under setting [6], 85 to 94%. Further, the pest or weed control at 140 g/ha under setting [7] was 0 to 29%; the pest or weed control at 140 g/ha under setting [8] is 45 to 59%; the pest or weed control at 140 g/ha under setting [9] lay in the range of 45 to 59%; the pest or weed control at 140 g/ha under setting [10] lay in the range of 85 to 94%; the pest or weed control at 140 g/ha under setting [11] lay within 95 to 100%; the pest or weed control at 140 g/ha under setting [12] is 95 to 100%. Moreover, the pest or weed control at 140 g/ha by setting is: under setting [13], 60 to 74%; under setting [14], 45 to 59%; under setting [15], 0 to 29%.
For the molecule `COC(=O)c1nc(-c2ccc(F)cc2)c(F)cc1Cl` [F227, Methyl 3-chloro-5-fluoro-6-(4-fluorophenyl) picolinate], the pest or weed control at 140 g/ha runs as follows: under setting [1], 0 to 29%; under setting [2], 60 to 74%; under setting [3], 0 to 29%; under setting [4], 0 to 29%; under setting [5], 0 to 29%; under setting [6], 60 to 74%. Besides, the pest or weed control at 140 g/ha under setting [7] is 0 to 29%; the pest or weed control at 140 g/ha under setting [8] was in the range of 0 to 29%; the pest or weed control at 140 g/ha under setting [9] was 0 to 29%; the pest or weed control at 140 g/ha under setting [10] lay in the range of 30 to 44%; the pest or weed control at 140 g/ha under setting [11] was in the range of 30 to 44%; the pest or weed control at 140 g/ha under setting [12] was in the range of 75 to 84%. Besides, the pest or weed control at 140 g/ha runs as follows: under setting [13], 0 to 29%; under setting [14], 0 to 29%; under setting [15], 0 to 29%.
On to `COC(=O)c1nc(-c2c(C=O)cc(OC)c(O)c2Cl)ccc1Cl` [F228, Methyl 3-chloro-6-(2-chloro-6-formyl-3-hydroxy-4-methoxyphenyl) picolinate], for which the pest or weed control at 140 g/ha under setting [1] lay within 0 to 29%; the pest or weed control at 140 g/ha under setting [2] was 0 to 29%; the pest or weed control at 140 g/ha under setting [3] was in the range of 0 to 29%; the pest or weed control at 140 g/ha under setting [4] fell in the range of 0 to 29%; the pest or weed control at 140 g/ha under setting [5] fell in the range of 0 to 29%; the pest or weed control at 140 g/ha under setting [6] lay in the range of 0 to 29%. Also, the pest or weed control at 140 g/ha was 0 to 29% under setting [7]; 0 to 29% under setting [8]; 0 to 29% under setting [9]; 0 to 29% under setting [10]; 0 to 29% under setting [11]; 0 to 29% under setting [12]. For the same molecule, the pest or weed control at 140 g/ha by setting is: under setting [13], 0 to 29%; under setting [14], 0 to 29%; under setting [15], 0 to 29%.
On to `COC(=O)c1nc(-c2ccc3c(c2F)OC(F)(F)O3)c(F)cc1Cl` [F229, Methyl 3-chloro-5-fluoro-6-(2,2,4-trifluorobenzo[d][1,3]dioxol-5-yl)picolinate], for which the pest or weed control at 140 g/ha under setting [1] lay within 85 to 94%; the pest or weed control at 140 g/ha under setting [2] fell in the range of 95 to 100%; the pest or weed control at 140 g/ha under setting [3] fell in the range of 95 to 100%; the pest or weed control at 140 g/ha under setting [4] is 0 to 29%; the pest or weed control at 140 g/ha under setting [5] is 85 to 94%; the pest or weed control at 140 g/ha under setting [6] fell in the range of 95 to 100%. The pest or weed control at 140 g/ha reads like this: under setting [7], 45 to 59%; under setting [8], 85 to 94%; under setting [9], 85 to 94%; under setting [10], 95 to 100%; under setting [11], 95 to 100%; under setting [12], 95 to 100%. Besides, the pest or weed control at 140 g/ha under setting [13] lay within 95 to 100%, the pest or weed control at 140 g/ha under setting [14] lay in the range of 95 to 100% and the pest or weed control at 140 g/ha under setting [15] was in the range of 45 to 59%.
`COc1c(-c2nc(C(=O)O)c(Cl)cc2F)ccc(C(F)F)c1F` [F230, 3-Chloro-6-(4-(difluoromethyl)-3-fluoro-2-methoxyphenyl)-5-fluoropicolinic acid]: the pest or weed control at 140 g/ha runs as follows: under setting [1], 60 to 74%; under setting [2], 95 to 100%; under setting [3], 95 to 100%; under setting [4], 0 to 29%; under setting [5], 30 to 44%; under setting [6], 60 to 74%. Besides, the pest or weed control at 140 g/ha by setting is: under setting [7], 0 to 29%; under setting [8], 0 to 29%; under setting [9], 0 to 29%; under setting [10], 95 to 100%; under setting [11], 0 to 29%; under setting [12], 95 to 100%. Further, the pest or weed control at 140 g/ha is, setting by setting: under setting [13], 95 to 100%; under setting [14], 0 to 29%; under setting [15], 0 to 29%.
